# Experimental data from patent publication US7132437B2, “Renal-selective biphenylalkyl 1H-substituted-1,2,4-triazole angiotensin II antagonists for treatment of hypertension” (G.D. Searle, priority 1990, dated 2006).
# Experiments:
# [1] = tested on: spontaneously hypertensive rats (SHR); experiment: Assay D: In Vivo Effects of Chronic Infusion of Conjugate (mean arterial pressure, heart rate); design: species or system rat
# Method: Assay D: In Vivo Effects of Chronic Infusion of Conjugate of the Invention
# (§1) This in vivo experiment was conducted to characterize the effects of the Example 79 conjugate on spontaneously hypertensive rats (SHR) by acute administration i.v. and by chronic administration i.v. The […] compound or saline vehicle was infused continuously for four days in SHR. Mean arterial pressure was measured (Gould Chart Recorder, model 3800; Statham P23 Db pressure transducer) via an indwelling femoral artery catheter between 10:00 a.m. and 2:00 P.M. each day. The Example 79 conjugate (10 mg/hr) or saline was infused via a jugular vein catheter with a Harvard infusion pump. […] A test was conducted to determine whether the Example 79 conjugate would antagonize non-renal, vascular angiotensin II receptors. In this test AII was administered by bolus injection (100 ng/kg) to the SHR rats (described above) on the control day and on days 1, 3 and 4 during conjugate infusion.
# [2] = target: T1, non-renal, vascular angiotensin II receptors (Rattus norvegicus, UniProt P25095); experiment: Assay D: AII pressor response during conjugate infusion (systemic AII antagonism); format: in vivo; conditions: SHR, AII bolus 100 ng/kg on control day and days 1, 3 and 4 of infusion
# T1 construct: from tissue; host or cells: whole animal: spontaneously hypertensive rat (SHR), systemic vasculature
# T1 sequence (P25095 1-359): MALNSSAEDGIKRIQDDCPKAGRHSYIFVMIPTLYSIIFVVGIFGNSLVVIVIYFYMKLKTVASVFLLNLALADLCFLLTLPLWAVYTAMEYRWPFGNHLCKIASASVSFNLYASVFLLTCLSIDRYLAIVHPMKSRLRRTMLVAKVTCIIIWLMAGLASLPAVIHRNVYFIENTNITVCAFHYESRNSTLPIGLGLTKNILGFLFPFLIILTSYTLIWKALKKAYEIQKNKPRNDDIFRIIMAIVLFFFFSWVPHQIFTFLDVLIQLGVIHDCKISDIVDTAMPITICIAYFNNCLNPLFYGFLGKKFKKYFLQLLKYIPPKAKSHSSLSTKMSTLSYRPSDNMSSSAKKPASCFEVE
# Method: as §1
compound,measurement,setting,value
"CCCCc1nc(CCCC)n(Cc2ccc(-c3ccccc3C(=O)NNC(=O)CCC(NC(C)=O)C(=O)O)cc2)n1 (stereo not shown) [Example 79 conjugate, N-acetylglutamic acid, 5-[[4′-[(3,5-dibutyl-1H-1,2,4-triazol-1-yl)methyl][1,1′-biphenyl]-2-yl]]carbonylhydrazide]",mean arterial pressure compared to saline vehicle control,[1]; 10 mg/hr infused for four days,lowered mean arterial pressure
same,tachycardia,[1]; day 1 of conjugate infusion,Tachycardia was observed on day 1
same,Heart Rate,[1]; days 2 to 4 of conjugate infusion,heart rate was returned to control level during the next three days
same,systemic angiotensin II receptor antagonism,[2],No evidence for systemic angiotensin II receptor antagonism was observed
